Data taken from patent US10723741B1, “DNA polymerase IIIC inhibitors and use thereof” (Acurx Pharmaceuticals, LLC, priority 2018, dated 2020).
Converted amounts (≈) assume the structure as drawn. Where two headings read alike, the source gives them in different places.

Tests used:
Type in all cases: cell-based
[1] = test system: Staphylococcus aureus NRS384 (MRSA); test: Broth microdilution MIC, S. aureus NRS384 (MRSA); conditions: Staphylococcus aureus, broth microdilution, 37° C., 20 hours, read-out: MIC NRS 384 (MRSA)
Source text: (§1) Bacteria tested are Staphylococcus aureus NRS384 (a methicillin-resistant Staphylococcus aureus, MRSA), Staphylococcus aureus ATCC 29213 (a methicillin-sensitive Staphylococcus aureus, MSSA), Streptococcus pneumoniae ATCC 49619, Enterococcus faecalis ATCC 29212, Enterococcus faecium ATCC 700221 (a vancomycin-resistant enterococcus, VRE), Bacillus subtilis ATCC 6633, and Escherichia coli ATCC 25922.
(§2) Staphylococcus aureus NRS384 was obtained from NARSA (Network on Antimicrobial Resistance in Staphylococcus aureus, now the strain collection is in BEI resources). Other bacterial isolates were from ATCC (The American Type Culture Collection). Upon receiving the bacteria samples from aforementioned institutes, the bacteria were cultured according to the manuals provided by the suppliers. The bacteria were stored in 25% glycerol (final concentration) at −80° C.
(§3) On the day of testing, the compounds were dissolved in pure DMSO (Sigma 276855-1L) to […] as stock. In a v-bottom 96-well plate (Axygen-wipp02280), 20 μl DMSO was added into well 2 to well 12 by manual pipetting. Into well 1, 12.8 μL of compound DMSO stock (20 mg/ml) was added and mixed with 27.2 μl DMSO by pipetting. Two fold serial dilutions were performed by transferring and mixing 20 μl of solution from well 1 to well 2, then well 2 to well 3 and so forth until well 11. The well 12 was loaded with 20 μl DMSO without compounds. This was drug ‘mother plate’. From well 1 to well 12, the drug concentrations in the mother plate were […] in DMSO. A multi-pipette was used to perform the serial dilutions. The concentration may be adjusted according to the potency of the compounds. An Echo® Acoustic liquid handling system may be used to replace manual pipetting to make the daughter plates.
(§4) One day prior to the day of MIC testing, bacterial strains were streaked out from −80° C. glycerol stocks onto MHA plates and incubated at 37° C. for 20 hours. Streptococcus pneumoniae was streaked on blood agar and incubated at 37° C. in 5% CO2. The single colonies were picked by using an inoculation loop (Greiner-731175) and suspended into 5 ml sterile saline. The turbidity of the suspension was adjusted to 0.10 (Siemens MicroScan turbidity meter), equal to ˜1.0×10^8 cfu/ml. The bacterial suspension was diluted 200× in corresponding test medium (Table 1). This was used to inoculate daughter plates.
(§5) For preparing u-bottom 96-well ‘daughter plates’ (Costar 3788), an aliquot of 1 μl solution from mother plate was then replicating transferred into the daughter plate using a multi-pipette.
(§6) An aliquot of 99 μl of the bacterial suspension was inoculated into each well of the daughter plates using a multi-pipette. Each well contained ˜5.0×10^5 cfu/ml bacteria, 1% DMSO and serially diluted compounds at 64, 32, 16, 8, 4, 2, 1, 0.5, 0.25, 0.125, 0.0625 and 0 μg/ml from well 1 to well 12 respectively, in 100 μl corresponding test medium.
(§7) The plates were incubated in ambient atmosphere and in a 37° C. incubator for 20 hours.
(§8) Compounds of the present invention were tested for antibacterial activity against a variety of bacterial organism including Bacillus subtilis, Staphylococcus aureus, Enterococcus faecalis, Enterococcus faecium, Streptococcus pneumoniae and Escherichia coli. […] Compounds described in Examples 2, 44, 53, 56, 90, 134, 212, 213, 214, 218, 222, 304, 305, and 307 had MIC of ≤1 μg/ml against S. aureus NRS 384 (MRSA) (μg/ml) and E. faecium ATCC 700221 (VRE) (μg/ml).

[2] = test system: Staphylococcus aureus ATCC 29213 (MSSA); test: Broth microdilution MIC, S. aureus ATCC 29213 (MSSA); conditions: broth microdilution, 37° C., 20 hours, read-out: MIC S. aureus ATCC 29213 (MSSA)
Source text: as §1, §2, §3, §4, §5, §6, §7, §8

[3] = test system: Enterococcus faecalis ATCC 29212; test: Broth microdilution MIC, E. faecalis ATCC 29212; conditions: ATCC29212, broth microdilution, 37° C., 20 hours, read-out: MIC E. faecalis ATCC 29212
Source text: as §1, §2, §3, §4, §5, §6, §7, §8

[4] = test system: Bacillus subtilis ATCC 6633; test: Broth microdilution MIC, B. subtilis ATCC 6633; conditions: ATCC6633, broth microdilution, 37° C., 20 hours, read-out: MIC B. subtilis ATCC 6633
Source text: as §1, §2, §3, §4, §5, §6, §7, §8

[5] = test system: Enterococcus faecium ATCC 700221 (VRE); test: Broth microdilution MIC, E. faecium ATCC 700221 (VRE); conditions: Enterococcus faecium; broth microdilution, 37° C., 20 hours; read-out: MIC E. faecium ATCC 700221 (VRE)
Source text: as §1, §2, §3, §4, §5, §6, §7, §8

[6] = test system: Escherichia coli ATCC 25922; test: Broth microdilution MIC, E. coli ATCC 25922 (MHIIB w & w/o 4 mM EDTA); conditions: broth microdilution, 37° C., 20 hours; for MIC: Escherichia coli, ATCC25922, without EDTA, read-out: MIC E. coli ATCC 25922; for MIC E. coli ATCC 25922 + 4 mM EDTA: with 4 mM EDTA
Source text: as §1, §2, §3, §4, §5, §6, §7, §8

[7] = test system: Streptococcus pneumoniae ATCC 49619; test: Broth microdilution MIC, S. pneumoniae ATCC 49619; conditions: ATCC49619, broth microdilution, 37° C., 20 hours, read-out: MIC S. pneumoniae ATCC 49619
Source text: as §1, §2, §3, §4, §5, §6, §7, §8

| MIC [1] | MIC [2] | MIC [3] | MIC [4] | MIC [5] | MIC [6] | MIC E. coli ATCC 25922 + 4 mM EDTA [6] | MIC [7] | MIC ([1]; S. aureus NRS 384) | Structure (SMILES) |
| --- | --- | --- | --- | --- | --- | --- | --- | --- | --- |
| > 64 µg/mL | > 64 µg/mL | > 64 µg/mL | 64 µg/mL (≈ 197 µM) | 16 µg/mL (≈ 49.4 µM) | > 64 µg/mL | 64 µg/mL | 64 µg/mL (≈ 197 µM) | – | Cn1ncc2nc(NCc3ccc(Cl)cc3Cl)[nH]c(=O)c21 [Compound 28, 5-((2,4-Dichlorobenzyl)amino)-1-methyl-1H-pyrazolo[4,3-d]pyrimidin-7(6H)-one] |
| 32 µg/mL (≈ 80.8 µM) | > 64 µg/mL | > 64 µg/mL | 16 µg/mL (≈ 40.4 µM) | 16 µg/mL (≈ 40.4 µM) | > 64 µg/mL | >64 µg/mL | 16 µg/mL (≈ 40.4 µM) | – | COC(=O)CCn1cc2nc(NCc3ccc(Cl)c(Cl)c3)[nH]c(=O)c2n1 [Compound 232, Methyl 3-(5-((3,4-dichlorobenzyl)amino)-7-oxo-6,7-dihydro-2H-pyrazolo[4,3-d]pyrimidin-2-yl)propanoate] |
| 2 µg/mL (≈ 5.07 µM) | 2 µg/mL (≈ 5.07 µM) | 4 µg/mL (≈ 10.1 µM) | 1 µg/mL (≈ 2.54 µM) | 2 µg/mL (≈ 5.07 µM) | > 64 µg/mL | >64 µg/mL | 4 µg/mL (≈ 10.1 µM) | – | COC/C=C/Cn1ncc2nc(NCc3ccc(Cl)c(Cl)c3)[nH]c(=O)c21 [Compound 192, (E)-5-((3,4-dichlorobenzyl)amino)-1-(4-methoxybut-2-en-1-yl)-1H-pyrazolo[4,3-d]pyrimidin-7(6H)-one] |
| 16 µg/mL (≈ 40 µM) | 16 µg/mL (≈ 40 µM) | 16 µg/mL (≈ 40 µM) | 4 µg/mL (≈ 9.99 µM) | 4 µg/mL (≈ 9.99 µM) | > 64 µg/mL | >64 µg/mL | 8 µg/mL (≈ 20 µM) | – | [2H]C([2H])(Nc1nc2cnn(CCOCCO)c2c(=O)[nH]1)c1ccc(Cl)c(Cl)c1 [Compound 291, 5-[[dideuterio-(3,4-dichlorophenyl)methyl]amino]-1-[2-(2-hydroxyethoxy)ethyl]-6H-pyrazolo[4,3-d]pyrimidin-7-one] |
| 64 µg/mL | 64 µg/mL | 32 µg/mL | 16 µg/mL | 8 µg/mL | > 64 µg/mL | >64 µg/mL | 16 µg/mL | – | Cl.O=c1[nH]c(NCc2ccc(Cl)c(Cl)c2)nc2cnn(CCc3nnc(CO)o3)c12 [Compound 234, 5-((3,4-dichlorobenzyl)amino)-1-(2-(5-(hydroxymethyl)-1,3,4-oxadiazol-2-yl)ethyl)-1H-pyrazolo[4,3-d]pyrimidin-7(6H)-one hydrochloride] |
| 64 µg/mL | 64 µg/mL | 32 µg/mL | 2 µg/mL | 32 µg/mL | > 64 µg/mL | 64 µg/mL | 4 µg/mL | – | Cl.NCCOCCn1ncc2nc(NCc3ccc(Cl)c(Cl)c3)[nH]c(=O)c21 [Compound 99, 1-(2-(2-aminoethoxy)ethyl)-5-((3,4-dichlorobenzyl)amino)-1H-pyrazolo[4,3-d]pyrimidin-7(6H)-one hydrochloride] |
| 8 µg/mL (≈ 21.7 µM) | 16 µg/mL (≈ 43.5 µM) | 16 µg/mL (≈ 43.5 µM) | 4 µg/mL (≈ 10.9 µM) | 8 µg/mL (≈ 21.7 µM) | > 64 µg/mL | 64 µg/mL | 8 µg/mL (≈ 21.7 µM) | – | CC(CO)n1ncc2nc(NCc3ccc(Cl)c(Cl)c3)[nH]c(=O)c21 (centres unmarked) [Compound 228, 5-((3,4-dichlorobenzyl)amino)-1-(1-hydroxypropan-2-yl)-1H-pyrazolo[4,3-d]pyrimidin-7(6H)-one] |
| 64 µg/mL | 32 µg/mL | 32 µg/mL | 4 µg/mL | 64 µg/mL | > 64 µg/mL | >64 µg/mL | 8 µg/mL | – | CN1CCC(O)(Cn2ncc3nc(NCc4ccc(Cl)c(Cl)c4)[nH]c(=O)c32)CC1.Cl [Compound 241, 5-((3,4-dichlorobenzyl)amino)-1-((4-hydroxy-1-methylpiperidin-4-yl)methyl)-1H-pyrazolo[4,3-d]pyrimidin-7(6H)-one hydrochloride] |
| – | 2 µg/mL (≈ 4.62 µM) | 2 µg/mL (≈ 4.62 µM) | 0.5 µg/mL (≈ 1.16 µM) | 1 µg/mL (≈ 2.31 µM) | > 64 µg/mL | >64 µg/mL | 2 µg/mL (≈ 4.62 µM) | 2 µg/mL (≈ 4.62 µM) | O=c1[nH]c(NCc2ccc(Cl)c(Cl)c2)nc2c(Cl)nn(CCOCCO)c12 [Compound 303, 3-Chloro-5-[(3,4-dichlorophenyl)methylamino]-1-[2-(2-hydroxyethoxy)ethyl]-6H-pyrazolo[4,3-d]pyrimidin-7-one] |
| 16 µg/mL (≈ 39 µM) | 32 µg/mL (≈ 78 µM) | 16 µg/mL (≈ 39 µM) | 32 µg/mL (≈ 78 µM) | 4 µg/mL (≈ 9.75 µM) | > 64 µg/mL | >64 µg/mL | 4 µg/mL (≈ 9.75 µM) | – | O=C(O)CCCCn1ncc2nc(NCc3ccc(Cl)c(Cl)c3)[nH]c(=O)c21 [Compound 219, 5-[5-[(3,4-dichlorophenyl)methylamino]-7-oxo-6H-pyrazolo[4,3-d]pyrimidin-1-yl]pentanoic Acid] |
| 32 µg/mL | 32 µg/mL | 64 µg/mL | 16 µg/mL | 64 µg/mL | > 64 µg/mL | 64 µg/mL | 32 µg/mL | – | CNC(=N)NCCn1ncc2nc(NCc3ccc(Cl)c(Cl)c3)[nH]c(=O)c21.Cl [Compound 294, 1-(2-(5-((3,4-Dichlorobenzyl)amino)-7-oxo-6,7-dihydro-1H-pyrazolo[4,3-d]pyrimidin-1-yl)ethyl)-3-methylguanidine hydrochloride] |
| 8 µg/mL | 16 µg/mL | 4 µg/mL | 4 µg/mL | 2 µg/mL | > 64 µg/mL | >64 µg/mL | 8 µg/mL | – | Cl.O=C(c1cn[nH]n1)N1CCC(n2ncc3nc(NCc4ccc(Cl)c(Cl)c4)[nH]c(=O)c32)CC1 [Compound 272, 1-(1-(2H-1,2,3-triazole-4-carbonyl)piperidin-4-yl)-5-((3,4-dichlorobenzyl)amino)-1H-pyrazolo[4,3-d]pyrimidin-7(6H)-one hydrochloride] |
| 4 µg/mL | 4 µg/mL | 4 µg/mL | 1 µg/mL | 2 µg/mL | > 64 µg/mL | >64 µg/mL | 4 µg/mL | – | Cc1cncc(C(=O)N2CCC(n3ncc4nc(NCc5ccc(Cl)c(Cl)c5)[nH]c(=O)c43)CC2)c1.Cl [Compound 261, 5-((3,4-Dichlorobenzyl)amino)-1-(1-(5-methylnicotinoyl)piperidin-4-yl)-1H-pyrazolo[4,3-d]pyrimidin-7(6H)-one hydrochloride] |
